Assay results as given in US12208080B2, “Compositions and methods for modulation of extracellular vesicle release and treatment of neurological disorders” (GEORGE MASON RESEARCH FOUNDATION, INC., priority 2018, dated 2025).

Experiments:
cdk9/Cyclin Ti = target: T1, cdk9/Cyclin Ti (Homo sapiens, UniProt P50750); assay: Kinase assay: cdk9 immunoprecipitate, phosphorylation of histone H1; type: biochemical; settings: for phosphorylation of Histone H1: U1, CBD 1 μM, THC 1 μg/mL every day for 5 days, anti-cdk9 IP, FIG. 17 legend
T1 construct: Lysates were immunoprecipitated with 10 μg of cdk9 or IgG antibodies overnight at 4° C; endogenous in cells; host or cells: U1 cells treated with CBD or THC for 5 days, then lysed and immunoprecipitated with anti-cdk9
T1 sequence (P50750 whole entry): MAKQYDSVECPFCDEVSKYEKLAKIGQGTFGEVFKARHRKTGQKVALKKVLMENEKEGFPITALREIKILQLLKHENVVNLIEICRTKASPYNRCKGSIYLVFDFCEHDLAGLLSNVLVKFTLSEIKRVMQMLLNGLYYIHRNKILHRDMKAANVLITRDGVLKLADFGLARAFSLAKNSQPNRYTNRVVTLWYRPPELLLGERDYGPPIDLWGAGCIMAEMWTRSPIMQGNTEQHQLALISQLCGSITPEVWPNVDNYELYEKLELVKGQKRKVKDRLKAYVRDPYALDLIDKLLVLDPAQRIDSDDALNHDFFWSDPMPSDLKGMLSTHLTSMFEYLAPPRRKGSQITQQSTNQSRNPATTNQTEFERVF
T1 sequence (O60563 whole entry partner): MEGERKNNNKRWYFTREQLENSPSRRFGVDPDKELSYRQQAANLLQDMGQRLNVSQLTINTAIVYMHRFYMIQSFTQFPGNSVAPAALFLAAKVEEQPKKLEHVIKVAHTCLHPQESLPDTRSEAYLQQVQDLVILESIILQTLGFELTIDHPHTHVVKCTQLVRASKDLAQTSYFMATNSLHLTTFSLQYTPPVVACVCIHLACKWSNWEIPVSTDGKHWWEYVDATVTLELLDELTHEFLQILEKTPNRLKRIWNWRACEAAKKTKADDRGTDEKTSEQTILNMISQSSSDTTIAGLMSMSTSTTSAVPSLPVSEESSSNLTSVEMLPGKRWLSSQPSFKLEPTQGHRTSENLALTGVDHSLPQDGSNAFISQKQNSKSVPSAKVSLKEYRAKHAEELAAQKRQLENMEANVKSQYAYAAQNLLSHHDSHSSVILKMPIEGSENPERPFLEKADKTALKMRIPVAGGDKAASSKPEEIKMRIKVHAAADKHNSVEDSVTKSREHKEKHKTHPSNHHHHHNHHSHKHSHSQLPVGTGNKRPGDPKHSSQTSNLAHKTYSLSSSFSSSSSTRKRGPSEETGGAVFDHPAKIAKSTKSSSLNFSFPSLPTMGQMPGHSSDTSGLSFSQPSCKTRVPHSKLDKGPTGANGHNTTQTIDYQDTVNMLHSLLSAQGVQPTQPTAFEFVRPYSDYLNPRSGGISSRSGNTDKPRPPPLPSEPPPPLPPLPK
Experimental: U1 cells (5×10^6) were treated with CBD (1 μM) and THC (1 μg/mL) every day for 5 days. Cells were then lysed, centrifuged and the supernatants (˜150 ug) incubated with anti-cdk9 and IgG antibodies as described in the Kinase Assay section (Materials and Methods), ran on a 4-20% gel and dried, followed by imaging for phosphorylated Histone 1 (p-H1). p-H1 Densitometry counts were calculated on the kinase blot and normalized to background gel pieces.
U1 cells (5×10^6) were treated with CBD (1 μM) and THC 1 μg/mL) every day for 5 d. Cells were pelleted by centrifugation at 15,000×g for 5 minutes, washed with 1×PBS, and lysed in 250 μL lysis buffer. Lysates were immunoprecipitated with 10 μg of cdk9 or IgG antibodies overnight at 4° C., followed by a 2 h incubation with A/G beads at 4° C. IP complexes were washed with TNE50+0.1% NP40 buffer and kinase buffer as described in (Guendel et al., 2014, Novel Neuroprotective GSK-3β Inhibitor Restricts Tat-Mediated HIV-1 Replication. Journal of Virology, 88(2), 1189-1208), followed by 1 h incubation period at 37° C. with γ-^32P ATP and purified histone H1. The samples (50%) were loaded and run through SDS-PAGE on a 4-20% Tris-Glycine gel, followed by staining with Coomassie blue, destain with destain buffer (50% methanol and 10% acetic acid), and dried for 2 h. The dried gels were exposed to a PhosphorImager Cassette, followed by analysis via Molecular Dynamic's ImageQuant Software.
U1 monocytes were treated with CBD (10 μM) and Flavo (50 nM) for short periods (0, 2 and 6 hours) due to the fact that HIV-1 transcription activity is a rapid event that can be scored using chromatin immunoprecipitation (ChIP) assay for factor occupancy. Treated samples were lysed and incubated with IgG control and Pol II (serine 2/5) antibodies for ChIP, followed by qPCR analysis for TAR DNA. […] As expected, there was no change in amount of TAR DNA pulled down with PolII with any treatment compared to the untreated control at 0 hours samples (lanes 1-3).

[1] = tested on: HIV-1 infected primary macrophages; assay: RT-qPCR of EV-associated viral RNA from HIV-1 infected primary macrophages; type: cell-based; settings: 1, 5, 10 uM
Experimental: FIGS. 11A-11B are graphs showing CBD lowers viral RNAs in EVs released from HIV-1 infected primary macrophages. Primary PBMCs were purchased (Precision For Medicine, Frederick, Md.) and cultured in vitro first with PMA/GM-CSF for 3 days to obtain macrophages, and were then infected with HIV-1 89.6 strain (MOI.1.0) for 12 days. The macrophages were treated with PMA and GM-CSF during the infection period (added every 3 days into the fresh media). On day 12, all cells were treated with cART (4 antivirals) and kept in culture for another 3 days. On day 15, media was removed and CBD was added for 5 days (1, 5, 10 μM; at 0 and 48 hours). Supernatants were then isolated and exosomes were enriched using NT80/82 beads overnight at 4° C. […]
To examine whether the same trend could be observed in a primary cell model, three independent HIV-1 infected primary macrophage cell cultures were treated with a titration of CBD (1, 5, and 10 uM). EVs were enriched from the extracellular supernatant using NT80/82 beads and analyzed for HIV-1 TAR and env (FIG. 11). […] To apply these findings to in vivo HIV-1 infection, total EVs were enriched from plasma samples from 15 individuals; 5 healthy donors, 5 HIV-1 positive donors, and 5 HIV-1 positive donors who used Cannabis, were trapped using NT80/82 particles and analyzed via Western blot for the presence of HIV-1 Nef protein.

| Compound | phosphorylation of Histone H1 (cdk9/Cyclin Ti) | TAR RNA within EVs ([1]; three primary macrophage cultures, FIG. 11A) | env RNA in secreted EVs ([1]; two out of three infected primary macrophages, FIG. 11B) | cdk9/Cyclin Ti activity in vitro (cdk9/Cyclin Ti; FIG. 17) |
| --- | --- | --- | --- | --- |
| CCCCCc1cc(O)c2c(c1)OC(C)(C)[C@@H]1CCC(C)=C[C@@H]21 [THC, Δ9-tetrahydrocannabinol] | lower phosphorylation of Histone H1 | – | – | – |
| C=C(C)[C@@H]1CCC(C)=C[C@H]1c1c(O)cc(CCCCC)cc1O [CBD, 2-[1R-3-methyl-6R-(1-methylethenyl)-2-cyclohexen-1-yl]-5-pentyl-1,3-benzenediol] | lower phosphorylation of Histone H1 | statistically significant decrease | statistically significant decreasing trend | did not inhibit |
